Results published in patent US12171755B2, “PAPD5 inhibitors and methods of use thereof” (Children's Medical Center Corporation, priority 2017, dated 2024).

Columns and labels:
[1] = molecular target: T1, PARN exonuclease (Homo sapiens, UniProt O95453); assay: Counter-screen for inhibition of PARN exonuclease; type: biochemical
T1 sequence (O95453 1-639): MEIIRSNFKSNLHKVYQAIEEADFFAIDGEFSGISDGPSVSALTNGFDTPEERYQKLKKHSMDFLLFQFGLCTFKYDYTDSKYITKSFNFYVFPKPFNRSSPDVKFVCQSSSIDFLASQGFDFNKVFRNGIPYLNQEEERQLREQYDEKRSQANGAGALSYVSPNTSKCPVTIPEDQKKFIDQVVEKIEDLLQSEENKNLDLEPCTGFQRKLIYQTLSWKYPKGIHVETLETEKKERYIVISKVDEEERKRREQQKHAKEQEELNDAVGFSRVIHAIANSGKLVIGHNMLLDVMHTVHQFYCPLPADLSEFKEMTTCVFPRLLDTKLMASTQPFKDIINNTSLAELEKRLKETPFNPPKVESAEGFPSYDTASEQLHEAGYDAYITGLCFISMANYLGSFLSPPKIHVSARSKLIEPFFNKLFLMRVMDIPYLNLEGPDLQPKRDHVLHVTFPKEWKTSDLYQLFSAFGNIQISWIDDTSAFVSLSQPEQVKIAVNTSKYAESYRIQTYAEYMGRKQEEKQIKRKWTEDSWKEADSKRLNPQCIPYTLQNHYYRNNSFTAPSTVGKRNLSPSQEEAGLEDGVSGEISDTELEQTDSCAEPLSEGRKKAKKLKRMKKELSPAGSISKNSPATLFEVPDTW
Excerpt: Although PARN and PAPD5 have opposing functions in TERC maturation and stabilization, PARN and PAPD5 are structurally related, and so molecules that inhibit one enzyme may inhibit the other.

[2] = molecular target: T2, PAPD5 (Homo sapiens, UniProt Q8NDF8); assay: PAPD5 oligonucleotide extension assay (gel), compound dose response vs ATP; type: biochemical; conditions: recombinant PAPD5 in vitro
T2 construct: made in house
Experimental: Candidate inhibitors are assayed at a range of concentrations in functional assays entailing extension of fluorescently-labelled RNA oligonucleotide substrates in the presence of PAPD5, followed by gel electrophoresis. […] In FIG. 5, a 20-mer 5′-fluorescently labelled RNA oligonucleotide was incubated with recombinant WT or mutant PAPD5 for 1 hour in the presence of varying concentrations of ATP, and products were visualized by polyacrylamide gel electrophoresis. It is expected that wildtype (WT) PAPD5 with PAPD5 inhibitors can have similar results. In fact, 4 compounds were selected to test the validation assay. The results were shown in FIG. 8, and were consistent with the expected results.
Each compound tested in the assay was tested at 0 μM, 5 μM, 10 μM, 50 μM, and 100 μM. At each concentration, each compound was tested at 0 μM, 10 μM, 100 μM, and 1000 μM concentration of ATP.

[3] = tested on: TERC 3′ end processing in HEK 293 with stable shRNA-mediated knockdown of PARN; assay: TERC 3′ end processing (3′ RACE) in PARN-deficient HEK 293 cells; type: cell-based; conditions: PARN-deficient human cells (HEK 293, PARN shRNA knockdown), treated for 7 days; 10 µM and 100 μM; listed as entry 1 in table 1
Experimental: The expected amplicons representing mature TERC versus extended forms are indicated (arrows). […] HEK 293 with stable shRNA-mediated knockdown of PARN were treated for 7 days with the Table 5, entry 1 compound.

[4] = molecular target: T2, PAPD5; assay: High-throughput luminescence (KinaseGlo) RNA polyadenylation assay, ATP utilization by recombinant PAPD5; type: biochemical; conditions: Table 4 (entries of Table 5), ratio of luminescence with inhibitor to DMSO; for Fold-change determined at compound concentration 33 μM: 33 μM compound; for Fold-change determined at compound concentration 100 μM: 100 μM compound, higher = higher inhibition
Outline: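 Values are ratios of inhibitor to DMSO luminescence, so larger numbers mean less ATP consumed. Screening was run in duplicate with a 2 h room-temperature reaction of recombinant PAPD5, ATP and oligo RNA substrate plus compound. Residual ATP was detected after a 10 min KinaseGlo step.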

T2 sequence (Q8NDF8 68-698 isoform Q8NDF8-5): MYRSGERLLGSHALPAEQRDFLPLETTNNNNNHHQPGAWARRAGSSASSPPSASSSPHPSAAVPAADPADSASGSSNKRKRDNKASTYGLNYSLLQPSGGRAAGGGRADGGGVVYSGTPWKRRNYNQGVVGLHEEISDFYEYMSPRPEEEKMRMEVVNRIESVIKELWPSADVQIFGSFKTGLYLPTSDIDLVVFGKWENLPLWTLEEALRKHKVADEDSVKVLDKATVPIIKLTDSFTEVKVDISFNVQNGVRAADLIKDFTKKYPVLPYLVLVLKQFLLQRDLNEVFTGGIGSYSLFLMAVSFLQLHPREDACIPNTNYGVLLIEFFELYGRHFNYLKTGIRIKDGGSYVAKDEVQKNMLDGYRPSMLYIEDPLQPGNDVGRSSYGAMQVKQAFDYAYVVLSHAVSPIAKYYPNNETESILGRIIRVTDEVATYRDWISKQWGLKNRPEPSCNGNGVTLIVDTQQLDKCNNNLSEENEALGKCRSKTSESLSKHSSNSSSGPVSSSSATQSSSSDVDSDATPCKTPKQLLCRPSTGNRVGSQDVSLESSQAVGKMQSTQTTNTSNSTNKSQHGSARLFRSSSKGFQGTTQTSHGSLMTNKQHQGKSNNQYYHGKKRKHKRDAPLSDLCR

Compound	inhibition of PARN exonuclease (in words) [1]	inhibition of PAPD5 (in words) [2]	restoration of TERC 3′ end processing / maturation (in words) [3]	Fold-change determined at compound concentration 33 μM [4]	Fold-change determined at compound concentration 100 μM [4]
CCOC(=O)c1cnc2ccc(OC(F)(F)F)cc2c1Nc1ccccc1C(=O)O [entry 1 in Table 5, 2-[[3-ethoxycarbonyl-6-(trifluoromethoxy)quinolin-4-yl]amino]benzoic acid]	do not inhibit PARN	inhibit PAPD5	–	–	–
CCOC(=O)c1cnc2ccc(OC(F)(F)F)cc2c1Nc1ccccc1C(=O)O [Entry 1, 2-[[3-ethoxycarbonyl-6-(trifluoromethoxy)quinolin-4-yl]amino]benzoic acid]	–	–	restoration of TERC maturation that is similar to that achieved by PAPD5 knockdown	–	–
CCc1ccc2ncc(C(=O)c3ccc(C)c(C)c3)c(N3CCC(C(N)=O)CC3)c2c1 [entry 2 in Table 5, 1-[3-(3,4-dimethylbenzoyl)-6-ethylquinolin-4-yl]piperidine-4-carboxamide]	do not inhibit PARN	inhibit PAPD5	–	–	–
CN(C)CCNC(=O)c1ccc(Cn2c(=O)c3cccn3c3cccnc32)cc1 [Entry 70, N-[2-(dimethylamino)ethyl]-4-[(6-oxopyrido[2,3-e]pyrrolo[1,2-a]pyrazin-5(6H)-yl)methyl]benzamide]	–	–	–	1.103	1.206
COc1ccc(Cc2nccc3cc(OC)c(OC)cc23)cc1OC [Entry 237, 1-(3,4-dimethoxybenzyl)-6,7-dimethoxyisoquinoline]	–	–	–	1.166	1.362
COc1cc(-c2nc(C(N)=O)c3[nH]c(=O)n(CC4CCCO4)c3n2)ccc1O (stereo not shown) [Entry 165, 2-(4-hydroxy-3-methoxyphenyl)-8-oxo-9-(tetrahydrofuran-2-ylmethyl)-8,9-dihydro-7H-purine-6-carboxamide]	–	–	–	1.224	1.689
CC1=NCCc2c1[nH]c1ccccc21 [Entry 113, 1-Methyl-4,9-dihydro-3H-beta-carboline]	–	–	–	1.202	1.674
Cc1cc(C)c2c(=O)cc(CSc3nnc(-c4cccc(F)c4)n3C)[nH]c2c1 [Entry 106, 2-[[5-(3-fluorophenyl)-4-methyl-1,2,4-triazol-3-yl]sulfanylmethyl]-5,7-dimethyl-1H-quinolin-4-one]	–	–	–	1.218	1.522
O=c1c2sccc2n2c(=S)[nH]nc2n1Cc1ccccc1 [Entry 75, 4-benzyl-1-thioxo-2,4-dihydrothieno[2,3-e][1,2,4]triazolo[4,3-a]pyrimidin-5(1H)-one]	–	–	–	1.11	1.324
COc1ccc(Nc2ncnc3sc(C(=O)O)c(C)c23)cc1OC [Entry 40, 4-(3,4-dimethoxyanilino)-5-methylthieno[2,3-d]pyrimidine-6-carboxylic acid]	–	–	–	1.589	2.956
